# Reference: patent US20250215071A1, “Novel Mcl-1 inhibitor and combination of Mcl-1 and a BH3 mimetic, such as a Bcl-2 inhibitor” (NETRIS PHARMA, priority 2022, published 2025)
# System: HeLa UNC5B cells
# Assay: UNC5B-induced DNA fragmentation in HeLa UNC5B cells
# Type: cell-based, Human
# Conditions: doxycycline-induced UNC5B; 18 hours
# Protocol: FIG. 2. CRISPR-Cas9 screening identifies genes and molecular pathways involved in UNC5B-induced cell death. Related to FIG. 1. (A): UNC5B induction upon treatment with doxycycline. Stable HCT116 cells, inducible for UNC5B, were treated with the indicated concentrations of doxycycline (Dox). 24 hours later, protein levels of FLAG-UNC5B and GAPDH, used as housekeeping gene, were assessed by western blot. (B): UNC5B induction upon treatment with doxycycline on Hela cells. Stable Hela cells inducible for UNC5B (HeLa UNC5B) were treated with the indicated doses of Dox for 18 hours. Protein levels of His-UNC5B and β-actin, used as housekeeping gene, were measured by western blot. (C,D,E): Induction of UNC5B triggers apoptotic cell death in HCT116 cells. Stable HCTT16 cells inducible for human UNC5B were treated with Dox. To assess cell death, propidium iodide (PI) incorporation was followed in real-time up to 36 hours, using an Incucyte Zoom technology (n=3, ** p<0.01, Kolmogorov Smirnov test) (C). Apoptosis was assessed 18 hours after Dox treatment by DNA fragmentation through flow cytometry ([…] (D) and by caspase-3 activity (E), quantified by fluorometric detection kit (n=3, *p<0.05, ** p<0.01, *** p<0.001, Ordinary two-way ANOVA). Values are given as means±SEM. (F): Caspase inhibition rescues apoptosis triggered by UNC5B. HeLa UNC5B cells were treated with Dox and the pan-caspase inhibitor […] (QVD). 18 hours later, DNA fragmentation was evaluated by flow cytometry (n=3, **** p<0.0001, ordinary two-way ANOVA with Šidák's multiple comparisons test). Values are given as means±SEM. […] The number of guides showing an increase in reads compared to control condition is shown for each gene.
# FIG. 4. […] 18 hours after treatment, apoptosis was measured by DNA fragmentation (A) and caspase-3 activity (B) (n=3-4, **** p<0.0001, ordinary two-way ANOVA with Tukey's multiple comparisons test). […] Protein levels of Mcl-1, Bcl-2 and Bcl-XL, as well as of UNC5B and B-actin, used as housekeeping gene, were evaluated by western blot. […]
structure (smiles),measurement,value
CC(C)C[C@H](NC(=O)[C@H](Cc1ccccc1)NC(=O)c1cnccn1)B(O)O [bortezomib],UNC5B-induced apoptosis (DNA fragmentation),suppressed
